The numbers were not newly measured in patent US8703900B2 (BioAmber Inc., priority 2010, dated 2014), which cites them from elsewhere.

The conditions of the data set: first acid group.

For `O=C(O)CCCCC(=O)O` [AA, adipic acid], the pKa1 was 4.43.
